One data set relates to S. aureus. Briefly: Photoinactivation of bacteria by phenoselenazinium derivatives (S. aureus). Type of data set: cell-based. The conditions noted are these: 10 μM photosensitiser, 30 min 37° C., 665 nm laser, 3 J/cm^2 (10 mW/cm^2). The procedure: (§1) 1 mM stock solutions of the photosensitisers were made up by solubilising the photosensitiser in dimethyl sulfoxide.
(§2) Bacteria (E. coli, S. aureus) and yeast (C. albicans) cells were grown at 37° C. until the cells reached the logarithmic growth phase. Bacterial cells were grown in nutrient media, yeast cells were grown in Sabouraud media (obtainable via Millipore Limited, Watford, England).
(§3) Following the incubation, the log phase cells were washed twice in 0.1 M pH7.0 potassium phosphate buffer. The cells were then resuspended in buffer to give 3.5×10^8 CFU/ml for E. coli and S. aureus, or 1.0×10^7 CFU/ml for C. albicans.
(§4) The cells were incubated for 30 min at 37° C. with 10 μM photosensitiser. Following the incubation 2 mL of the cell suspension was removed into a 30 mm sterile Petri dish. The cell containing dish was then illuminated with a 665 nm Ceramoptec diode laser (trade mark of Ceramoptec GmBH, Germany and obtainable from Biolitec, Germany), at a light dose of 3 J/cm^2 (10 mW/cm^2).
(§5) Cells of the illuminated and non illuminated cultures were serially diluted and plated on either: nutrient agar (E. coli and S. aureus) or sabouraud agar (C. albicans). The plates were incubated for 24 h (E. coli and C. albicans) or 48 h (S. aureus). The colonies on the plates were counted as a measure of cell survival.

The test system of data set [1] is subcutaneous CaNT tumours. The data set can be described thus: Anti-tumour efficacy in vivo (PDT, tumour necrosis). Also on record: species or system CBA/gy mice. The conditions noted are these: 60 J/cm^2 660±15 nm, 72 h after illumination. The procedure: (§6) Tumour destruction was assessed in CBA/gy mice bearing subcutaneous CaNT tumours. The photosensitiser was administered intravenously at doses up to 16.7 μmol/kg. At various times after photosensitiser administration, the tumour was illuminated superficially with 60 J/cm^2, 50 mW/cm^2 light from a Paterson lamp using a 660±15 nm filter. Drug-light intervals ranged from 0 h (in practice, 1-2 minutes) up to 96 h. 72 h after illumination a cross sectional slice was removed from the centre of the tumour parallel to the incident light, an image of this was captured and the macroscopic necrotic area quantified using image analysis software. Necrosis was expressed as % area of the total tumour slice. % tumour necrosis in control tumours was generally <10%.
(§7) The phenoselenazinium compounds were dissolved and administered in a composition comprising 25% Solutol, 10% ethanol, 65% saline vehicle.

A short description of data set [2]: Partition coefficient log P. The class given is physicochemical. The conditions noted are these: 2-octanol/0.1 M aqueous potassium phosphate at pH 7. From the text:
Partition coefficient (2-octanol/0.1 M aqueous potassium phosphate at pH 7): log P=>2.

Data set [3] is described as follows: Singlet oxygen yield relative to Methylene Blue. The class given is physicochemical. Conditions: in methanol, relative to MB.
A further data set has as its system C. albicans. Briefly: Photoinactivation of yeast by phenoselenazinium derivatives (C. albicans). The class given is cell-based. The conditions noted are these: 10 μM photosensitiser, 30 min 37° C., 665 nm laser, 3 J/cm^2 (10 mW/cm^2). The procedure: as §1, §2, §3, §4, §5
In another data set the test system is E. coli. The data set can be described thus: Photoinactivation of bacteria by phenoselenazinium derivatives (E. coli). The class given is cell-based. Conditions: 10 μM photosensitiser, 30 min 37° C., 665 nm laser, 3 J/cm^2 (10 mW/cm^2). The procedure:
as §1, §2, §3, §4, §5

The test system of data set [4] is normal tissues surrounding the tumour (usually kidney). Type of data set: in vivo. The conditions noted are these: arbitrary score 0-3, i.v. dose 1.67 μmol/Kg. The procedure: as §6
An arbitrary score 0-3 of the severity of damage to normal tissues surrounding the tumour (usually kidney) was also recorded. 0=no detectable damage; 1=minimal damage to one organ; 2=damage to more than one organ; 3=death
as §7

The mark [5] stands for this setting: i.v. dose 1.67 μmol/Kg, drug to light interval 0 h.
Setting [6] is: i.v. dose 8.4 μmol/Kg, drug to light interval 1 h.
[7] abbreviates: i.v. dose 1.67 μmol/Kg, drug to light interval 1 h.

Where two headings read alike, the source gives them in different places.

Usually logP stands for a log measure of how a compound divides between an organic and an aqueous phase. Read a low logP as lower lipophilicity. In the case of `CCCCCN(CCCCC)c1ccc2nc3ccc(N(CCCCC)CCCCC)cc3[se+]c2c1` [Compound 4, 3,7-Bis-(N,N-dipentylamino)phenoselenazin-5-ylium iodide], the “Log change in CFU/mL” value with S. aureus is 0.95 (0.73) log CFU/mL; with C. albicans, 0.17 (0.02) log CFU/mL; in the data set on E. coli it was 3.66 (2.23) log CFU/mL. Moreover, the “% tumour necrosis” value in data set [1] (setting [5]) was determined as 10%; in data set [1] (i.v. dose 4.18 μmol/Kg, drug to light interval 0 h) it was 45%; in data set [1] (i.v. dose 6.26 μmol/Kg, drug to light interval 0 h), 80%; in data set [1] (i.v. dose 8.34 μmol/Kg, drug to light interval 0 h), 80%. In data set [2], the logP was > 2. Moreover, the “Singlet oxygen yield (relative to Methylene Blue)” value in data set [3] is reported as 1.4.

In the case of `CCCCCCN(CCCCCC)c1ccc2nc3ccc(N(CCCCCC)CCCCCC)cc3[se+]c2c1` [Compound 5, 3,7-Bis-(N,N-dihexylamino)phenoselenazin-5-ylium iodide], the “Log change in CFU/mL” value is 0.18 (0.12) log CFU/mL with S. aureus, −0.03 (0.03) log CFU/mL in the data set on C. albicans and 0.02 (0.13) log CFU/mL in the data set with E. coli. The results for the “% tumour necrosis” value in data set [1] (setting [5]) and in data set [1] (setting [6]) were 0% and 30%, respectively. Moreover, the logP in data set [2] is > 2. Also, the “Singlet oxygen yield (relative to Methylene Blue)” value in data set [3] worked out at 1.1.

Turning to `CCCN(CCC)c1ccc2nc3ccc(N(CCC)CCC)cc3[se+]c2c1` [Compound 2, 3,7-Bis-(N,N-dipropylamino)phenoselenazin-5-ylium iodide], the results for the “Log change in CFU/mL” value with S. aureus, with C. albicans and with E. coli were 1.70 (0.48) log CFU/mL, 0.35 (0.42) log CFU/mL and 3.16 (0.03) log CFU/mL, respectively. Also, the “% tumour necrosis” value was found to be 55% in data set [1] (setting [5]); 87% in data set [1] (i.v. dose 8.4 μmol/Kg, drug to light interval 0 h); 17% in data set [1] (setting [6]); 100% in data set [1] (i.v. dose 16.7 μmol/Kg, drug to light interval 0 h). Besides, the lipophilicity (logP) in data set [2] is > 2. The “Singlet oxygen yield (relative to Methylene Blue)” value in data set [3] is 1.1.

Turning to `CCCCN(CCCC)c1ccc2nc3ccc(N(CCC)CCC)cc3[se+]c2c1` [Compound 6, 3-N,N-dibutylamino-7-N,N-dipropylamino-phenoselenazin-5-ylium iodide], the results for the “Log change in CFU/mL” value in the data set with S. aureus, in the data set with C. albicans and with E. coli were 2.66 (2.26) log CFU/mL, 6.12 (0.82) log CFU/mL and 6.54 (0.00) log CFU/mL, respectively. Moreover, the “% tumour necrosis” value in data set [1] (setting [5]) was determined as 75%; in data set [1] (setting [7]) it was 15%. For the same compound, the logP in data set [2] was > 2. Besides, the “Singlet oxygen yield (relative to Methylene Blue)” value in data set [3] came out at 1.1.

In the case of `CCN(CC)c1ccc2nc3ccc(N(CC)CC)cc3[se+]c2c1` [Compound 3, 3,7-Bis-(N,N-diethylamino)phenoselenazin-5-ylium iodide], the “Log change in CFU/mL” value with S. aureus was 2.72 (0.87) log CFU/mL; in the data set on C. albicans, 0.16 (0.22) log CFU/mL; with E. coli, 3.78 (0.28) log CFU/mL. Also, the “% tumour necrosis” value in data set [1] (setting [5]) and in data set [1] (setting [7]) was 0% throughout. Further, the logP in data set [2] was 1.5. In addition, the “Singlet oxygen yield (relative to Methylene Blue)” value in data set [3] is on record as 1.5.

Consider `CCCCN(CCCC)c1ccc2nc3ccc(N(CCCC)CCCC)cc3[se+]c2c1` [Compound 1, 3,7-Bis-(N,N-dibutylamino)phenoselenazin-5-ylium bromide], for which the “Log change in CFU/mL” value is 0.21 (0.01) log CFU/mL in the data set on S. aureus, 0.00 (0.05) log CFU/mL in the data set on C. albicans and 5.48 (0.34) log CFU/mL with E. coli. The “% tumour necrosis” value came out at 93% in data set [1] (i.v. dose 0.84 μmol/Kg, drug to light interval 0 h); 40% in data set [1] (i.v. dose 0.84 μmol/Kg, drug to light interval 1 h); 88% in data set [1] (setting [5]); 88% in data set [1] (setting [7]). Besides, in data set [2], the logP is > 2. Besides, the “Singlet oxygen yield (relative to Methylene Blue)” value in data set [3] was 0.9.

As to `CN(C)c1ccc2nc3ccc(N(C)C)cc3[se+]c2c1.[I-]` [Compound A, 3,7-N,N-dimethylamino-phenoselenazin-5-ylium iodide, reference compound], the “Log change in CFU/mL” value in the data set with S. aureus is 1.74 (0.41) log CFU/mL; in the data set with C. albicans, 0.19 (0.06) log CFU/mL; in the data set with E. coli, 3.33 (0.01) log CFU/mL. The “% tumour necrosis” value in data set [1] (setting [5]) and in data set [1] (setting [7]) was 0% throughout. For the same compound, the Normal tissue damage in data set [4] (drug to light interval 0 h) and in data set [4] (drug to light interval 1 h) was 0 in each case.
